Experimental data taken from PubChem BioAssay (NCI).
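Five compound concentrations were applied to cells in 96-well plates for 48 hours; endpoints were derived by simple linear interpolation of the resulting dose-response curve. Abbreviation: GI50, concentration required for 50% inhibition of growth. The concentration for full growth arrest is given as TGI.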

Legend:
Assay in all cases: inhibition of tumour cell growth, NCI panel, 48 h
M14 melanoma = tested on: M14 melanoma
A549 NSCLC = tested on: A549 NSCLC
MALME-3M melanoma = tested on: MALME-3M melanoma
SW-620 colon = tested on: SW-620 colon
A498 renal = tested on: A498 renal
NCI-H226 lung = tested on: NCI-H226 lung
BT-549 breast = tested on: BT-549 breast
HCT-116 colon = tested on: HCT-116 colon
SF-539 CNS = tested on: SF-539 CNS
K-562 leukemia = tested on: K-562 leukemia
OVCAR-4 ovarian = tested on: OVCAR-4 ovarian
SF-295 CNS = tested on: SF-295 CNS
KM12 colon = tested on: KM12 colon
MDA-MB-435 = tested on: MDA-MB-435
T-47D breast = tested on: T-47D breast
SK-MEL-28 melanoma = tested on: SK-MEL-28 melanoma
SN12C renal = tested on: SN12C renal
NCI-H460 lung = tested on: NCI-H460 lung
PC-3 prostate = tested on: PC-3 prostate
OVCAR-5 ovarian = tested on: OVCAR-5 ovarian
HT29 colon = tested on: HT29 colon
SNB-75 CNS = tested on: SNB-75 CNS
SK-MEL-5 melanoma = tested on: SK-MEL-5 melanoma
OVCAR-3 ovarian = tested on: OVCAR-3 ovarian
DU-145 prostate = tested on: DU-145 prostate
HOP-62 NSCLC = tested on: HOP-62 NSCLC
COLO 205 colon = tested on: COLO 205 colon

COc1cc(/C=C\c2cc(/C=C\c3ccc(O)c(OC)c3)n(C(=O)Nc3ccc(C(F)(F)F)cc3)n2)ccc1O
GI50 (M14 melanoma): 1.94 µM | TGI (M14 melanoma): 4.08 µM | GI50 (A549 NSCLC): 4.11 µM | TGI (A549 NSCLC): > 100 µM | GI50 (MALME-3M melanoma): 2.89 µM | TGI (MALME-3M melanoma): 8.4 µM | GI50 (SW-620 colon): 2.56 µM | TGI (SW-620 colon): 5.9 µM | GI50 (A498 renal): 5.81 µM | TGI (A498 renal): 20.6 µM | GI50 (NCI-H226 lung): 7.29 µM | TGI (NCI-H226 lung): 27.6 µM | GI50 (BT-549 breast): 1.96 µM | TGI (BT-549 breast): 3.67 µM | GI50 (HCT-116 colon): 1.51 µM | TGI (HCT-116 colon): 2.94 µM | GI50 (SF-539 CNS): 2.37 µM | TGI (SF-539 CNS): 7.45 µM | GI50 (K-562 leukemia): 2.53 µM | TGI (K-562 leukemia): > 100 µM | GI50 (OVCAR-4 ovarian): 3.51 µM | TGI (OVCAR-4 ovarian): 52.7 µM | GI50 (SF-295 CNS): 2.89 µM | TGI (SF-295 CNS): 9.85 µM | GI50 (KM12 colon): 2.33 µM | TGI (KM12 colon): 5.59 µM | GI50 (MDA-MB-435): 2.35 µM | TGI (MDA-MB-435): 7.06 µM | GI50 (T-47D breast): 2.81 µM | TGI (T-47D breast): 39 µM | GI50 (SK-MEL-28 melanoma): 2.19 µM | TGI (SK-MEL-28 melanoma): 5.9 µM | GI50 (SN12C renal): 2.73 µM | TGI (SN12C renal): 9.9 µM | GI50 (NCI-H460 lung): 3.22 µM | TGI (NCI-H460 lung): 9.95 µM | GI50 (PC-3 prostate): 3.21 µM | TGI (PC-3 prostate): 13.5 µM | GI50 (OVCAR-5 ovarian): 2.16 µM | TGI (OVCAR-5 ovarian): 4.97 µM | GI50 (HT29 colon): 2.02 µM | TGI (HT29 colon): 4.13 µM | GI50 (SNB-75 CNS): 2.99 µM | TGI (SNB-75 CNS): 66 µM | GI50 (SK-MEL-5 melanoma): 2.27 µM | TGI (SK-MEL-5 melanoma): 6.89 µM | GI50 (OVCAR-3 ovarian): 3.41 µM | TGI (OVCAR-3 ovarian): 26.7 µM | GI50 (DU-145 prostate): 3.67 µM | TGI (DU-145 prostate): 13 µM | GI50 (HOP-62 NSCLC): 3.6 µM | TGI (HOP-62 NSCLC): 16.2 µM | GI50 (COLO 205 colon): 2.05 µM | TGI (COLO 205 colon): 4.5 µM
